In patent US10617683B2, “Inhibitors of CRL4 ubiquitin ligase and uses thereof” (Cornell University, priority 2012, dated 2020):
Where a SMILES comes first, the peptide text is derived from it. The star is where a group is joined. Cbz = O=C(OCc1ccccc1)*

Tested on: DDB2 degradation by CUL4A in MEF cells expressing FLAG-tagged DDB2
Assay: cell-based assay for DDB2 degradation by CUL4A following UV
Parameters: species or system Mouse
Conditions: positive control, FIG. 2 lane 3
From the text: FIG. 2 is an image which depicts experimental data illustrating the results of a cell-based DDB2 degradation assay. The tested compounds, which are described in detail in FIGS. 7-11, included the following small molecule compounds: PZ-104 (lane 1); PZ-108 (lane 2); PZ-106 (lane 3); PZ-101 (lane 4); PZ-103 (lane 5); PZ-501 (lane 6); PZ-202 (lane 7); PZ-203 (lane 8); PZ-201 (lane 9); PZ-301 (lane 10); PZ-305 (lane 11); PZ-303 (lane 12); PZ-601 (lane 13); PZ-701 (lane 14); PZ-701 (lane 15); PZ-901 (lane 16); PZ-1001 (lane 17); PZ-1101 (lane 18); PZ-1201 (lane 19); PZ-401 (lane IV1); PZ-402 (lane IV2); and PZ-403 (IV3). MG132, a proteasome inhibitor that blocks UV-induced DDB2 degradation, was a positive control. Tubulin levels were determined by Western blotting as a loading control. […]
A cell-based assay for DDB2 degradation by CUL4A following exposure to UV light was used as a second validation assay to evaluate the hit compounds. […] Three hours post UV exposure, cells were lysed in 1×SDS buffer and protein concentrations were measured by the BCA kit. F-DDB2 levels were detected by SDS PAGE and Western blotting, and tubulin levels were used as loading control. […]

CC(C)C[C@@H](C=O)NC(=O)[C@H](CC(C)C)NC(=O)[C@H](CC(C)C)NC(=O)OCc1ccccc1 [MG132] (Cbz-Leu-Leu-Leu-aldehyde)
UV-induced DDB2 degradation: blocks
